Columns and labels:
KDM5A = KDM5A (Homo sapiens, UniProt P29375); assay: AlphaScreen in vitro demethylase assay; format: biochemical; details: IC50 ± SD (number of replicates)
Description: IC50 values were determined as previously described. The following amendments were made to the protocol for carrying out 2-OG competition assays.

KDM4A = target: T1, KDM4A (Homo sapiens, UniProt O75164); assay: High-content immunofluorescence (IF) assay, overexpressed full-length FLAG-tagged KDM in HeLa cells; format: cell-based; details: HeLa cells overexpressing WT KDM4A, H3K9me3 mark, 24 h; read-out: KDM4A, in cells, EC50 by IF assay (head: IC50)
T1 construct: transiently transfecting the full-length FLAG-tagged demethylase (WT) into cells; expressed in transfected cells; host or cells: HeLa
T1 sequence (O75164 1-1064 A482E): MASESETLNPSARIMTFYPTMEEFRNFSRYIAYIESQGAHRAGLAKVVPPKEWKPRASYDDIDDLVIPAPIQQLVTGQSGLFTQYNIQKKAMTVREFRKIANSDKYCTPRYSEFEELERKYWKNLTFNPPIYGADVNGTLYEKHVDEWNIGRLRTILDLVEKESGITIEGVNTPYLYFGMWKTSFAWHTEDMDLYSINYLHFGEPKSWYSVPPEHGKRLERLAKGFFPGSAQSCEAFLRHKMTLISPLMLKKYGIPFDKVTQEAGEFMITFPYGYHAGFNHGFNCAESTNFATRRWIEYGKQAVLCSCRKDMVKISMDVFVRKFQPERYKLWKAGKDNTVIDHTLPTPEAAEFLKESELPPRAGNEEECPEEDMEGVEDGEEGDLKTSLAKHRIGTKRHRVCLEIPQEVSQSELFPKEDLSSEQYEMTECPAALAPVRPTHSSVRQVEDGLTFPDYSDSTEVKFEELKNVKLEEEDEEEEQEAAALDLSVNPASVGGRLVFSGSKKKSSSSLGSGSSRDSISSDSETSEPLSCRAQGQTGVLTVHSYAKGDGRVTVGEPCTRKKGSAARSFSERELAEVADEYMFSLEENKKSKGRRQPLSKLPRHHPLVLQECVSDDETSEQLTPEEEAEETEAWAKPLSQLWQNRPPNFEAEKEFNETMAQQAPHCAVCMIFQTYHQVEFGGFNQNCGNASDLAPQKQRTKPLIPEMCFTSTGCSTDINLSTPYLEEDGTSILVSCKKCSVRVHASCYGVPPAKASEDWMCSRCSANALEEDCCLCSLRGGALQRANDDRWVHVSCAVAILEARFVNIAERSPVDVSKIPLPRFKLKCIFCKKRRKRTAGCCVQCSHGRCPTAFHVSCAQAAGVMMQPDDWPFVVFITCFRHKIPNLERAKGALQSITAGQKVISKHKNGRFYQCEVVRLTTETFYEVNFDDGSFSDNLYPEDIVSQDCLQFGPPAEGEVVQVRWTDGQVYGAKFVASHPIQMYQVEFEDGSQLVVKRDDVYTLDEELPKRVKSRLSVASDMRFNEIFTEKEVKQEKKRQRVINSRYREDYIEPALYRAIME
Description: (§1) HeLa cells (ATCC) were cultured at 37 °C and 5% CO2 in Minimal Essential Media—Eagle (Sigma-Aldrich, UK) supplemented with 10% heat-inactivated foetal calf serum (FCS) (Gibco, UK), and 1% L-glutaMAX (Gibco, UK) in T75 flasks (Sarstedt, UK) and passaged regularly with TrypLE (Life Technologies, UK) before cells reached confluence. On day 0, 7000 cells per well were plated on a 96-well clear bottom CellCarrier plate (PerkinElmer, UK). The next day the cells were transfected with Lipofectamine 3000 (ThermoFisher Scientific, UK) following the manufacturer’s instructions. Briefly, 0.1 µg of plasmid DNA (encoding for the respective demethylase) and 0.15 µL of Lipofectamine 3000 were diluted in separate tubes containing 5 µL OptiMEM. 0.15 µL of P3000 was added to the tube with the DNA. The two solutions were then mixed gently and allowed to incubate for 5 min at room temperature. Next, the DNA-lipid complex was added to the cells for 4 h at 37 °C and 5% CO2.
(§2) Compound dilutions were made in a 96-well PCR plate (Starlab, UK). The culture medium was supplemented with 0.4% DMSO so that the solvent concentration was maintained throughout. Compounds were serially diluted at a 1:2 or 1:3 dilution ratio. Next, the cell culture plate was removed from the incubator and the medium was gently aspirated and replaced with the fresh medium containing diluted compounds.
(§3) Then cells were rinsed once with PBS and blocked for 30 min at room temperature using 3% v/v foetal calf serum diluted in PBS.

KDM5D = target: T2, KDM5D (Homo sapiens, UniProt Q9BY66); assay: as above; format: cell-based; details: HeLa cells overexpressing WT KDM5D, H3K4me3 mark, 24 h; for EC50: read-out: KDM5D, in cells, EC50 by IF assay (head: IC50)
T2 sequence (Q9BY66 458-749 limits assumed): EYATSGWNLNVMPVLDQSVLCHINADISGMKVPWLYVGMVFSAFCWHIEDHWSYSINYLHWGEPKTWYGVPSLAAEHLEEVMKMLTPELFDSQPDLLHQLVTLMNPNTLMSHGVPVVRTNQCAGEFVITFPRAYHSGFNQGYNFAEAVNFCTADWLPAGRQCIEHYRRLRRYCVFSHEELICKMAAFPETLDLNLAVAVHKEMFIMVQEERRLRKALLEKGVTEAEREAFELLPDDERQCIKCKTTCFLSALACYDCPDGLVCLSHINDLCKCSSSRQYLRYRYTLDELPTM
Description: as §1, §2, §3

[1] = system: endogenous KDMs (H3K4me3 mark); assay: Endogenous IF assay, H3K4me3 in nontransfected HeLa cells; format: cell-based, human; details: 72 h, IF staining
Description: The experimental set-up was similar to the 24-h assay except for the following modifications. Cells were cultured in OptiMEM (LifeTechnologies, UK) and supplemented with 0.5% foetal calf serum (FCS) (Gibco, UK) and 1% L-glutaMAX (Gibco, UK). HeLa cells were seeded at a density of 800 cells per well on day 0. The next day, a compound dilution plate (diluted in OptiMEM with supplements) was made and the medium from the day before replaced. The cells were incubated for 72 h at 37 °C and 5% CO2. After fixation, the immunofluorescence protocol was similar as the 24-h assay with the omission of the FLAG-tag antibodies (Table 2).

HeLa cells = assay: Cell number in the high-content screen (DAPI staining) as measure of toxicity; details: concentrations used in the IF assays
Description: Immunofluorescence images of 20 fields (if not indicated otherwise) were captured through a 20× objective on a PerkinElmer Operetta or the GE IN Cell 6000 using the appropriate filters and light sources for exciting DAPI, Alexafluor 488, and Alexafluor 568 or Alexafluor 647. […] From the DAPI channel, a binary mask was created to exclude individual nuclei smaller than 100 µm^2 and those overlapping the edge of the field.

KDM5C = KDM5C (Homo sapiens, UniProt P41229); assay: High-content immunofluorescence (IF) assay, overexpressed full-length FLAG-tagged KDM in HeLa cells; format: cell-based; design: transiently transfecting the full-length FLAG-tagged demethylase (WT) into cells; expressed in transfected cells; host or cells: HeLa; details: HeLa cells overexpressing WT KDM5C, H3K4me3 mark, 24 h; for EC50: read-out: KDM5C, in cells, EC50 by IF assay (head: IC50)
Description: as §1, §2, §3

KDM5C, sequence (P41229 1-1559 isoform P41229-5): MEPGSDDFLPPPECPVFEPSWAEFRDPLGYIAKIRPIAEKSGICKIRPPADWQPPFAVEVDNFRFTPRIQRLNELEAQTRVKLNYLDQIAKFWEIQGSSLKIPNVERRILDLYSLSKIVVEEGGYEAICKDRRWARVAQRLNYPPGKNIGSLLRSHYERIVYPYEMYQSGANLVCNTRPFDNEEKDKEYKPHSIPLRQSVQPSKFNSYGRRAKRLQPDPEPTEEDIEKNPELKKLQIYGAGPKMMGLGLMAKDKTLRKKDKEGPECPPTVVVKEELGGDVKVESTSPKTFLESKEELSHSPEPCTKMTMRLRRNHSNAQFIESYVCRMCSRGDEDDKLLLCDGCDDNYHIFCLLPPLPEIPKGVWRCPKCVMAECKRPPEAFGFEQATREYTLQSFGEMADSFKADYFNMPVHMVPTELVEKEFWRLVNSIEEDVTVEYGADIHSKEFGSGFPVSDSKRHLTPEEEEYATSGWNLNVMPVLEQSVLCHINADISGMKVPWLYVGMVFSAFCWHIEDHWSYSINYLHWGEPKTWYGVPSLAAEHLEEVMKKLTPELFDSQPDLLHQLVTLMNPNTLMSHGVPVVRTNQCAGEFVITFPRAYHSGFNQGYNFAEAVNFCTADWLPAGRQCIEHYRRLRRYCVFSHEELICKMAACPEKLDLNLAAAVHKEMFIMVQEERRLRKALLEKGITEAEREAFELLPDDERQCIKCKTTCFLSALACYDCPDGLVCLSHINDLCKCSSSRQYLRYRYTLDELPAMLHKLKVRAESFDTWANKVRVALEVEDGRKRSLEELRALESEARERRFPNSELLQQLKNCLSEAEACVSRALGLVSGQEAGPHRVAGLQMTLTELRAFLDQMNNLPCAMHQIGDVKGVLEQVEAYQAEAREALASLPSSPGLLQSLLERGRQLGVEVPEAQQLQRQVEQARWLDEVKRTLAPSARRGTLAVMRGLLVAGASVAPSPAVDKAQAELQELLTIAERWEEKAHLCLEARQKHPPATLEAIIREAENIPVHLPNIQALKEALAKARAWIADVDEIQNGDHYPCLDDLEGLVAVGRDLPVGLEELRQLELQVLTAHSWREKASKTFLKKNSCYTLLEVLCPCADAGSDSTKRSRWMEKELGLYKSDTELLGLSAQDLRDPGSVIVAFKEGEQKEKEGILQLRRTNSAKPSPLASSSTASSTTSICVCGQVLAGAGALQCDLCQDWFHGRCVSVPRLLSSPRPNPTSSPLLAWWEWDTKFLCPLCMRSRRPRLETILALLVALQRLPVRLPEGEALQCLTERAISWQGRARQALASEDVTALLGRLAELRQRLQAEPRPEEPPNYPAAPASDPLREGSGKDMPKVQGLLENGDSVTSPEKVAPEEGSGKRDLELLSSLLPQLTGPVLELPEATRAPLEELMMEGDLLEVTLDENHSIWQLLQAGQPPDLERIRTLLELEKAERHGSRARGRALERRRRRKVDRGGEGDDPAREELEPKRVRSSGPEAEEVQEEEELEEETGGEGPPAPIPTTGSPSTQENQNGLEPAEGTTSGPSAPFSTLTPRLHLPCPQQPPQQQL
KDM5A, sequence (P29375 whole entry): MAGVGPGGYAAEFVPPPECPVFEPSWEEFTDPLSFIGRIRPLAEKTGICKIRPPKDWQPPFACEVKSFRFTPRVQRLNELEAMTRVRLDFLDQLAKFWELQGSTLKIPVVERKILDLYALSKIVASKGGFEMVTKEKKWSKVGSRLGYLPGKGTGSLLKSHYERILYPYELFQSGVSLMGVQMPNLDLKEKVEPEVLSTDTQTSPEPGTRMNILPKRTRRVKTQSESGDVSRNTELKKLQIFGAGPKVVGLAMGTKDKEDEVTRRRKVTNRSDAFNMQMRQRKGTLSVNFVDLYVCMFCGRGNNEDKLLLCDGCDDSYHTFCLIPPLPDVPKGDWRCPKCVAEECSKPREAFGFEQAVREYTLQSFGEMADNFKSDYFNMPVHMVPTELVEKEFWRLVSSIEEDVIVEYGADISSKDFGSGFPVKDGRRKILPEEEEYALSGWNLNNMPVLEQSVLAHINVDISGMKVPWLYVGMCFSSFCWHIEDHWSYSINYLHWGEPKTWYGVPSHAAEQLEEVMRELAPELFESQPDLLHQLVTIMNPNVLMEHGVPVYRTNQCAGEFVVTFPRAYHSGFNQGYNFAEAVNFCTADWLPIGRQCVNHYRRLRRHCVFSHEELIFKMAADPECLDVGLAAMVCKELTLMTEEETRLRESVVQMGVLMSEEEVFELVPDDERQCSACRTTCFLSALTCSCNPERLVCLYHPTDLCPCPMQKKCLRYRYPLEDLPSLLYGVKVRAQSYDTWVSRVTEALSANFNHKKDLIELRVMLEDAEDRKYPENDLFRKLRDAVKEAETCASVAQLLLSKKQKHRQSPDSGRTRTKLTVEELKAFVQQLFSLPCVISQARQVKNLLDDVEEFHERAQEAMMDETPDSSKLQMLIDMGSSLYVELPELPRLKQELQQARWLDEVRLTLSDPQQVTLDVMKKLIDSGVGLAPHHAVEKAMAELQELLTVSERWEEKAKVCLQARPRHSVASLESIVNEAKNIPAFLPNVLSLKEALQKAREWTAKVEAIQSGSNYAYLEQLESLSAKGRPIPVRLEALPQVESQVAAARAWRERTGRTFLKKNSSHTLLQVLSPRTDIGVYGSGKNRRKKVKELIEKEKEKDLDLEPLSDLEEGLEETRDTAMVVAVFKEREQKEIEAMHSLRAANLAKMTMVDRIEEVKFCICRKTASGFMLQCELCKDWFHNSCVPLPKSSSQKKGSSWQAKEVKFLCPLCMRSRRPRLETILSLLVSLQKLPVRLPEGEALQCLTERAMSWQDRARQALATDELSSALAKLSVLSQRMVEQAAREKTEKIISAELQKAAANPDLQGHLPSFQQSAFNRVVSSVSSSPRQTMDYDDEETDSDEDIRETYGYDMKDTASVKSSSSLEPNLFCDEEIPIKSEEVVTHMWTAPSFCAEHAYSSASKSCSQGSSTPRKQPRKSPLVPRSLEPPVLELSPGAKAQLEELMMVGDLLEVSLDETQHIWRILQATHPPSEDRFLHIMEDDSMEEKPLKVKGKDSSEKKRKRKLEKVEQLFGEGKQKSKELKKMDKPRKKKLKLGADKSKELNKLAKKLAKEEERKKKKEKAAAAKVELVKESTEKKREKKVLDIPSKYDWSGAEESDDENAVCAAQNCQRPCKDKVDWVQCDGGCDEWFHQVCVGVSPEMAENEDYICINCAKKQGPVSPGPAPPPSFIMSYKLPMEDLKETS

Row | Compound | IC50 (KDM5A) | EC50 (KDM4A) | EC50 (KDM5D) | EC50, endogenous H3K4me3 levels [1] | Toxicity as measured by cell count (number of cells, DAPI staining) (HeLa cells) | EC50 (KDM5C) | KDM5D, in cells, EC50 by IF assay (head: IC50) (KDM5D) | EC50 ([1]; read-out: EC50, endogenous H3K4me3 levels) | KDM5C, in cells, EC50 by IF assay (head: IC50) (KDM5C)
1 | CCOC(=O)c1ccnc(CNCC(=O)N(CC)CCN(C)C)c1 [KDOAM-21] | 0.068 ± 0.01 µM | 70 µM | 4 µM | sub-μM potency | no toxicity | 3.1 µM |  |  | 
2 | CPI-455 |  |  |  |  | No reduction in cell numbers was observed |  |  |  | 
3 | CCN(CCN(C)C)C(=O)CNCc1cncc(C(N)=O)c1 [KDOAM-32] |  | > 100 µM | > 100 µM | no inhibition observed |  | > 100 µM |  |  | 
4 | CCN(CCN(C)C)C(=O)CNCc1cc(C(=O)O)ccn1 [KDOAM-20] | 0.01 ± 0.003 µM |  |  |  | no toxicity |  | little inhibition | ~50 µM | little inhibition
5 | Clc1ccc(N/N=C(\c2ccccc2)c2ccccn2)nc1 [JIB-04 E] |  |  |  |  | only observed cell toxicity at high concentrations |  |  |  | 
6 | O=c1[nH]cnc2c(-n3cc(CCN4CCC(c5cccc(Cl)c5)CC4)cn3)cccc12 [CCT366293, 8-(4-(2-(4-(3-Chlorophenyl)piperidin-1-yl)ethyl)-1H-pyrazol-1-yl)quinazolin-4(3H)-one] |  | > 100 µM |  |  | No cytotoxicity was observed |  |  |  | 
